Data set [1] deals with Human fibroblasts (WI-38). Kind of data set: Collagen synthesis, procollagen type-I C-peptide kit. The class given is cell-based. To be noted: WI-38 fibroblasts, 24 h; for collagen production as compared to the control (sample-untreated cells): 1×10^−4% (w/v) or lower.
Experimental: Human fibroblasts (WI-38) that had been stored at −80° C. or in liquid nitrogen were used. The cells were uniformly placed on a 96-well plate, with 2.0×10^4 cells/well.
After culturing in MEM (FBS 5%) for 24 hours, the medium was replaced with a fresh serum-free medium and the cells were treated with gradually diluted sample. […] After treatment with the sample, the cells were further cultured for 24 hours on a 96-well plate. Then, the quantity of collagen was measured using a collagen measurement kit (Procollagen type-I C-peptide MK101, Takara).
For data set [2], the system named is human fibroblasts. The protocol:
MTT [3-(4,5-dimethylthiazol-2-yl)-2,5-diphenyltetrazolium bromide, Sigma M5655] assay was carried out to test the effect of the sample on proliferation of human fibroblasts.
The fibroblasts that had been stored at −80° C. or in liquid nitrogen were used. The cells were uniformly placed on a 96-well plate, with 2.0×10^4 cells/well. After culturing in MEM (FBS 5%) for 24 hours, the medium was replaced with a fresh serum-free medium and the cells were treated with gradually diluted sample. The samples were ginsenoside Rd and retinol. After treatment with the sample, the cells were further cultured for 24 hours on a 96-well plate. Subsequently, after adding 10 μL of MTT solution (5 mg/mL) to each well, the cells were cultured for 4 hours. After removing the medium and adding 100 μL of dimethyl sulfoxide to each well followed by shaking for 10 minutes, absorbance was measured at 540 nm using an ELISA reader.

In general, cell viability refers to a read-out of living cells in per cent, often relative to untreated cells.

Read-outs that look alike come from different tables or passages of the source.

In turn, `CC1=C(/C=C/C(C)=C/C=C/C(C)=C/CO)C(C)(C)CCC1` [Retinol, retinol, reference compound] came in with a maximum collagen production in data set [1] (at 1×10^−2 (w/v) or lower) of 30%. In data set [2] (human, 24 h), this compound yielded a cell viability of 100%.
For the compound `CC(C)=CCC[C@](C)(O)[C@H]1CC[C@]2(C)[C@@H]1[C@H](O)C[C@@H]1[C@@]3(C)CC[C@H](O)C(C)(C)[C@@H]3[C@@H](O[C@@H]3O[C@H](CO)[C@@H](O)[C@H](O)[C@H]3O[C@@H]3O[C@@H](C)[C@H](O)[C@@H](O)[C@H]3O)C[C@]12C` [Rg2, ginsenoside Rg2], the “collagen production as compared to the control (sample-untreated cells)” value in data set [1] is “remarkably decreased collagen production”.
Turning to `CC(C)=CCC[C@](C)(O[C@@H]1O[C@H](CO)[C@@H](O)[C@H](O)[C@H]1O)[C@H]1CC[C@]2(C)[C@@H]1[C@H](O)C[C@@H]1[C@@]3(C)CC[C@H](O[C@@H]4O[C@H](CO)[C@@H](O)[C@H](O)[C@H]4O[C@@H]4O[C@H](CO)[C@@H](O)[C@H](O)[C@H]4O)C(C)(C)[C@@H]3CC[C@]12C` [ginsenoside Rd], the “collagen production as compared to the control (sample-untreated cells)” value in data set [1] is recorded as “slightly decreased collagen production”. In data set [2], the cell viability is given as 100% and the cytotoxicity result is given as “no cytotoxicity”.

For the origin of these results see patent US20110318397A1, “METHOD FOR PREPARING HIGH PURITY GINSENOSIDE RD USING LACTOBACILLUS CASEI AND COSMETIC COMPOSITION FOR ANTI-WRINKLE COMPRISING THE HIGH PURITY GINSENOSIDE RD” (priority 2010, published 2011).
